Assay results as given in ChEMBL document CHEMBL1201862, “PubChem BioAssay data set” (2004).
The source made the active and inactive calls.

Experiments:
[1] = tested on: CHO; experiment: CHO cell viability loss, potency – luminescence, cytotoxicity control for TLR9-MyD88 binding inhibitor project, dose response (AID 588339); type: functional, cell-based, hamster; conditions: Cricetulus griseus;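 also: CHO cells stably coexpressing TLR9 and MyD88 fusions from primary screen; compound exposure lasted 48 hours before viability readout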
[2] = molecular target: Fatty acid synthase (Homo sapiens, UniProt P49327); experiment: inhibition of human FAS-TE enzyme activity – biochemical, kinetic fluorescence intensity, dose response (AID 624326); type: functional;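 also: rate of fluorescence rise from hydrolysis of a fluorogenic O-methyl fluorescein ester substrate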
[3] = tested on: Vero; experiment: cells; type: functional; conditions: Chlorocebus sabaeus
[4] = molecular target: Voltage-gated N-type calcium channel alpha-1B subunit/Amyloid beta A4 precursor protein-binding family A member 1 (Homo sapiens, UniProt Q00975+Q02410); type: protein assay
[5] = molecular target: Large T antigen (Simian virus 40, UniProt P03070); type: functional, Betapolyomavirus macacae;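 also: Confirmatory-stage PubChem screen for compounds that inhibit SV40 T antigen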
[6] = molecular target: Receptor tyrosine-protein kinase erbB-4 (Homo sapiens, UniProt Q15303); type: functional;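 also: ERBB4 member of a kinome-wide kinase profiling panel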
[7] = molecular target: MAP kinase-activated protein kinase 3 (Homo sapiens, UniProt Q16644); type: functional;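 also: value comes from a kinome-wide profiling panel in which MAPKAPK3 is one of the panel members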
[8] = molecular target: BDNF/NT-3 growth factors receptor (Homo sapiens, UniProt Q16620); type: functional;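 also: NTRK2 measured as one member of a broad kinome-wide kinase profiling panel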
[9] = molecular target: Casein kinase I isoform gamma-1 (Homo sapiens, UniProt Q9HCP0); type: functional;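 also: measured as the CSNK1G1 member of a kinome profiling panel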
[10] = molecular target: Ribosomal protein S6 kinase beta-1 (Homo sapiens, UniProt P23443); type: functional;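 also: measured as one member of a kinome-wide profiling panel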
[11] = molecular target: 3-phosphoinositide-dependent protein kinase 1 (Homo sapiens, UniProt O15530); type: functional;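 also: value comes from the Navigating the Kinome panel, PDPK1 member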
[12] = molecular target: Testis-specific serine/threonine-protein kinase 2 (Homo sapiens, UniProt Q96PF2); type: functional;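 also: part of the Navigating the Kinome panel, target entry STK22B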
[13] = molecular target: Calcium/calmodulin-dependent protein kinase type II subunit gamma (Homo sapiens, UniProt Q13555); type: functional
[14] = molecular target: Protein kinase C iota type (Homo sapiens, UniProt P41743); type: functional;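 also: measured within a kinome-wide kinase panel, PRKCI as panel member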
[15] = molecular target: Casein kinase II subunit alpha (Homo sapiens, UniProt P68400); type: functional
[16] = molecular target: RAC-gamma serine/threonine-protein kinase (Homo sapiens, UniProt Q9Y243); type: functional
[17] = molecular target: Protein kinase C gamma type (Homo sapiens, UniProt P05129); type: functional
[18] = molecular target: Vascular endothelial growth factor receptor 3 (Homo sapiens, UniProt P35916); type: functional;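 also: value from a kinome-wide profiling panel, with FLT4 as the panel member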
[19] = molecular target: Tyrosine-protein kinase JAK3 (Homo sapiens, UniProt P52333); type: functional
[20] = molecular target: Megakaryocyte-associated tyrosine-protein kinase (Homo sapiens, UniProt P42679); type: functional;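 also: affinity measured as one member of a kinase panel (Navigating the Kinome) against MATK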
[21] = molecular target: Serine/threonine-protein kinase BRSK1 (Homo sapiens, UniProt Q8TDC3); type: functional;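 also: measured within a kinome-wide kinase panel, with the target listed as KIAA1811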
[22] = molecular target: Mast/stem cell growth factor receptor Kit (Homo sapiens, UniProt P10721); type: functional;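 also: KIT entry within a kinase panel assay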
[23] = molecular target: Tyrosine-protein kinase ITK/TSK (Homo sapiens, UniProt Q08881); type: functional;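 also: affinity for ITK measured as one member of a broad kinase panel profiling binding across the kinome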
[24] = molecular target: Beta-galactosidase (Escherichia coli, UniProt Q8VNN2); experiment: detection-enzyme interference by beta-gal modulators – biochemical, E. coli enzyme, set 3, artefact control for CCR6 antagonist project, dose response (AID 504712); type: functional
[25] = tested on: INS1; experiment: INS-1E survival protection against cytokine death – cell-based, luminescence, retest, dose response (AID 449756); type: functional; conditions: Rattus norvegicus;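 also: cell death triggered by IL-1 beta plus TNF-alpha plus IFN-gamma mixture; protective hits raise ATP signal compared with cytokine alone wells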
[26] = tested on: BJ; experiment: BJ-TERT fibroblast viability loss – cell-based, RAS-independent, luminescence, dose response (AID 1933); type: functional; conditions: Homo sapiens
[27] = molecular target: T1, Sentrin-specific protease 8 (Homo sapiens, UniProt Q96LD8); type: functional;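 also: kinetic enzyme assay of SENP8 cleaving a Nedd8 protein substrate, dose-response confirmation of screening hits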
T1 sequence (Q96LD8 whole entry): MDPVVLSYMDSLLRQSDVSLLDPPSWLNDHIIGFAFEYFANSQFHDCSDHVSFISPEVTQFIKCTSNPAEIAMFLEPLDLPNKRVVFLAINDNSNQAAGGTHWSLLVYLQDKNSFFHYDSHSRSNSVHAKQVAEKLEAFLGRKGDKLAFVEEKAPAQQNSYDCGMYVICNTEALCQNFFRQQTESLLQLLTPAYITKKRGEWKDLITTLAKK

Casein kinase I isoform gamma-1, sequence (Q9HCP0 whole entry, canonical isoform): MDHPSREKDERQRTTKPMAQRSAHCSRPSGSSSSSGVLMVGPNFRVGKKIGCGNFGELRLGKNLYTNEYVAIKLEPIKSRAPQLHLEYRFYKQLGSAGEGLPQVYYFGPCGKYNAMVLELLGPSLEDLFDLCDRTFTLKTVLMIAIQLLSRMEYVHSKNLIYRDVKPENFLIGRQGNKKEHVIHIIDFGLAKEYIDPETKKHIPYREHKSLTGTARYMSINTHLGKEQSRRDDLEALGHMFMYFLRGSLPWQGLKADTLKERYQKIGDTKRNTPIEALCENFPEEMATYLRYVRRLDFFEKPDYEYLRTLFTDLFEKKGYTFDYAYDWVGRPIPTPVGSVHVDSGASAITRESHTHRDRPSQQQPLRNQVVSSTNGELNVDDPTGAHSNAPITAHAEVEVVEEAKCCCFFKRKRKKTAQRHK
Ribosomal protein S6 kinase beta-1, sequence (P23443 whole entry): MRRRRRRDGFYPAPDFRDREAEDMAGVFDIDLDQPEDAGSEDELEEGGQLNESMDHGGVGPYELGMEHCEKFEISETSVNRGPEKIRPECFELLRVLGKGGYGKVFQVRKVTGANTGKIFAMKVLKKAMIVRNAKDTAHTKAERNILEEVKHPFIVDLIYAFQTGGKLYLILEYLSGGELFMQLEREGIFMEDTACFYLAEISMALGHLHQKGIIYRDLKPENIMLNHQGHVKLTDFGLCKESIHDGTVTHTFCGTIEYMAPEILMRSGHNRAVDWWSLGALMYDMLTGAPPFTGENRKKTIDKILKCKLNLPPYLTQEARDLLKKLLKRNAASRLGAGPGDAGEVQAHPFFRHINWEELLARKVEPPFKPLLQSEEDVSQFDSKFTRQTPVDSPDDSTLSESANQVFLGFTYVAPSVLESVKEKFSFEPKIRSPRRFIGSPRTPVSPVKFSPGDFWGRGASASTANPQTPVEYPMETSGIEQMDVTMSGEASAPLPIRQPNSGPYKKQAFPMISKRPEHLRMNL
Beta-galactosidase, sequence (Q8VNN2 whole entry): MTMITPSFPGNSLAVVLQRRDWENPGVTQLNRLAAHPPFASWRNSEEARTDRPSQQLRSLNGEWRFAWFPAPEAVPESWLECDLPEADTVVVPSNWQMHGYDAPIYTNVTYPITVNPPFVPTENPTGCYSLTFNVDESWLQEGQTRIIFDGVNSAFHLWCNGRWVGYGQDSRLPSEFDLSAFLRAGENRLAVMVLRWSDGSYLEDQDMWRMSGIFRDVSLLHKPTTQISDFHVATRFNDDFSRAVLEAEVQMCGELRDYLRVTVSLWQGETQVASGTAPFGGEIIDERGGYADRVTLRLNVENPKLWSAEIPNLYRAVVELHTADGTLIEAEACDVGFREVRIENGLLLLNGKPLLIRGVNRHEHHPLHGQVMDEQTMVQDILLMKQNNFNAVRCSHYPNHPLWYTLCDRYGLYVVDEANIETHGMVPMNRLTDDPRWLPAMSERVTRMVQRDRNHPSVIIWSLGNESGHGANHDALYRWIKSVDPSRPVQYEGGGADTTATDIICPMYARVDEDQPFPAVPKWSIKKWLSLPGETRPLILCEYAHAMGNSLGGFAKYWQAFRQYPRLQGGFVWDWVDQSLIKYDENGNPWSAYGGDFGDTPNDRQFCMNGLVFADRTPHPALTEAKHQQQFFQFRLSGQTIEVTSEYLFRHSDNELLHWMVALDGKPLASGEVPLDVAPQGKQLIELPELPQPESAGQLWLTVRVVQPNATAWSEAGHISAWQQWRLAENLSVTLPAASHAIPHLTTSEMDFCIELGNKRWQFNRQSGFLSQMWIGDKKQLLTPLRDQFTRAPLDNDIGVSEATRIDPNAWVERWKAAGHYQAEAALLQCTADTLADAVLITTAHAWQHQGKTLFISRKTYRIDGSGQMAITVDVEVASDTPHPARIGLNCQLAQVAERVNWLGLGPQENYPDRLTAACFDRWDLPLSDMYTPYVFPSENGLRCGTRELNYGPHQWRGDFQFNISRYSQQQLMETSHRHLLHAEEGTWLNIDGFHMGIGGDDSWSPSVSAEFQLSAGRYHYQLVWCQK
Protein kinase C iota type, sequence (P41743 whole entry): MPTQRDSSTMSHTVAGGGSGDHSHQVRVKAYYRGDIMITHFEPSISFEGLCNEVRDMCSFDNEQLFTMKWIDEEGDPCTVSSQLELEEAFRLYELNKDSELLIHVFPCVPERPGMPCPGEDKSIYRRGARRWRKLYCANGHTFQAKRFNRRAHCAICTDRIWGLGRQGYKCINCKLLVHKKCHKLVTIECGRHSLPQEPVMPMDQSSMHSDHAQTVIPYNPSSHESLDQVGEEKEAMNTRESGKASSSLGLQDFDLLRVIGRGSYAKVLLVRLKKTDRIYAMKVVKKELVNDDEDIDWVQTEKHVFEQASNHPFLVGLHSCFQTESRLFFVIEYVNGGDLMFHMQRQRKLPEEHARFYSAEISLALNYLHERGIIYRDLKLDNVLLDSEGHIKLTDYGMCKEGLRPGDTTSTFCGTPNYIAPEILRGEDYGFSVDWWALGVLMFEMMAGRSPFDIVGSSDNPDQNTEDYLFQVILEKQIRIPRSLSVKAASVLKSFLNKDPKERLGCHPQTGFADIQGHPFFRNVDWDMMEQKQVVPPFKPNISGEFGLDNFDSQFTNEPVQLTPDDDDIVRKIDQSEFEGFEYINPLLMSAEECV
Vascular endothelial growth factor receptor 3, sequence (P35916 whole entry): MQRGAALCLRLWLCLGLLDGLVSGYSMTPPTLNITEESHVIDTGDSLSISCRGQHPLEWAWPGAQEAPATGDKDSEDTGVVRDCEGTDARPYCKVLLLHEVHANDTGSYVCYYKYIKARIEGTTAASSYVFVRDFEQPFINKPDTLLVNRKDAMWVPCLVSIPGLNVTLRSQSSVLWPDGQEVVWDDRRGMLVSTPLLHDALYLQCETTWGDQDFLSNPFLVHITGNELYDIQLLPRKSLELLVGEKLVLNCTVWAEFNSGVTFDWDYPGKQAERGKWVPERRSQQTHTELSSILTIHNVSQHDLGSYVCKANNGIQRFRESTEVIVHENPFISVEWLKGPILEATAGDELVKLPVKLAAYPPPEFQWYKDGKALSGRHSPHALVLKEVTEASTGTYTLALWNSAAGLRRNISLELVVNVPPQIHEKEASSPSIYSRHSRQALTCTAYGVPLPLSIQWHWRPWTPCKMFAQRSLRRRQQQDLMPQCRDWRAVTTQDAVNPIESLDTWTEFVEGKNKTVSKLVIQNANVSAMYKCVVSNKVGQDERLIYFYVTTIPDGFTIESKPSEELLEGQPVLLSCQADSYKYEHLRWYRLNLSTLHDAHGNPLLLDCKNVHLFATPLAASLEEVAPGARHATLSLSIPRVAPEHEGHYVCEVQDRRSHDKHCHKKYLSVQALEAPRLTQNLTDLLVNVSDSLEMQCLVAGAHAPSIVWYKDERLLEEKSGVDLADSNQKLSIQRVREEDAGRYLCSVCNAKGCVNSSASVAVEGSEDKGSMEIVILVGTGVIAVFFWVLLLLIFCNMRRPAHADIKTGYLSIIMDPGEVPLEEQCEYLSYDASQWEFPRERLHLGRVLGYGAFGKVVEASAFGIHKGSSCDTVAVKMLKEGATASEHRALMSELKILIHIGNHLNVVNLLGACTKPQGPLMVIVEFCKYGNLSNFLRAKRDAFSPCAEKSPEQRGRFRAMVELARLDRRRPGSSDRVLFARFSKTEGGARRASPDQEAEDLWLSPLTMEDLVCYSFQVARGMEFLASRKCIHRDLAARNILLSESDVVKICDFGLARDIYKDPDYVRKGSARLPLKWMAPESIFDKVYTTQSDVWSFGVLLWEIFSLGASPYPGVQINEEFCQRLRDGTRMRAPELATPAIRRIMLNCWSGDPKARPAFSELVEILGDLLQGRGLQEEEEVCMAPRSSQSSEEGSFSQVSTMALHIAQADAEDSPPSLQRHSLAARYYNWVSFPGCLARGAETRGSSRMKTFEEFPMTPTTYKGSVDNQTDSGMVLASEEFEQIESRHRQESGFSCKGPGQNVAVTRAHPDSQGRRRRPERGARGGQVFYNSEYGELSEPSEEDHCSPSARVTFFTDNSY
Megakaryocyte-associated tyrosine-protein kinase, sequence (P42679 whole entry): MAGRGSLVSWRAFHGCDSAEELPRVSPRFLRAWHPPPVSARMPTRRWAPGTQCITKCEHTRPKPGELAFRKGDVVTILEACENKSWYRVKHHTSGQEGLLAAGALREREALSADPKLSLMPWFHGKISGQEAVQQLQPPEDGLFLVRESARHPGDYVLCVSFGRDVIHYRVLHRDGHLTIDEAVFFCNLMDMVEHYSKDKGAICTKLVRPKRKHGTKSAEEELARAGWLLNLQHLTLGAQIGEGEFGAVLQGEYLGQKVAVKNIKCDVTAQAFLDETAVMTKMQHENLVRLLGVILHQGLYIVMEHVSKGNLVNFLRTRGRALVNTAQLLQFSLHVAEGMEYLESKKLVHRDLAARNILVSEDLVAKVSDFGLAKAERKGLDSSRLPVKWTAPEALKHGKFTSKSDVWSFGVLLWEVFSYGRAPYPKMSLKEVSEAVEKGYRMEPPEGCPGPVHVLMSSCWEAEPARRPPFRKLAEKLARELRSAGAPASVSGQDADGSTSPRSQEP
3-phosphoinositide-dependent protein kinase 1, sequence (O15530 whole entry): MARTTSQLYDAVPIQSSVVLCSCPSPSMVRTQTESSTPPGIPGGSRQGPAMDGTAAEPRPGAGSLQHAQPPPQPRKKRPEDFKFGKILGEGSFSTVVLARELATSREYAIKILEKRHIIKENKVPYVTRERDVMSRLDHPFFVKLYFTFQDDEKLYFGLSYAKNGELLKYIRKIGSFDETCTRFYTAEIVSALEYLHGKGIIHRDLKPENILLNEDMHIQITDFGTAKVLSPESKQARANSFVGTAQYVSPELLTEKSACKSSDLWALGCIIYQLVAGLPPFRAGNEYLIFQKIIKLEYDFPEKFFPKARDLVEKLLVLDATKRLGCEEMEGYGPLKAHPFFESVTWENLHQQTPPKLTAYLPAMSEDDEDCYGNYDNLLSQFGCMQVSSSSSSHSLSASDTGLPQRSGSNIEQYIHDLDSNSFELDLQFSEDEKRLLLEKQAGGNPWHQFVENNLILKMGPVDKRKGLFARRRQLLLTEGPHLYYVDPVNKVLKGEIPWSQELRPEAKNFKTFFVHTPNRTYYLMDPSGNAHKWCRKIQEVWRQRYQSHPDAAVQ

`CC(=O)N(C1=C(Cl)C(=O)c2ccccc2C1=O)C1CCCCC1` was tested, and the IC50 [1] was 802 nM (active), the IC50 [2] was 4540 nM (active) and the CC50 [3] was 13300 nM (active). The IC50 [4] was 745 nM (active).
In the case of `Oc1ccc(-c2cn3c(n2)SCC3)cc1O`, the IC50 [5] is reported as 9740 nM (active).
For `O=C1Nc2ccc3ncsc3c2C1=CNc1ccc(S(=O)(=O)Nc2ccccn2)cc1`, the Ki [6] was > 3980 nM (inactive), the Ki [7] was 7940 nM (active) and the Ki [8] was 79.4 nM (active). The Ki [9] was 2510 nM (active), the Ki [10] was 126 nM (active) and the Ki [11] was 15.8 nM (active). The Ki [12] was > 1580 nM (inactive), the Ki [13] was 200 nM (active) and the Ki [14] was > 5010 nM (inactive). The Ki [15] was 501 nM (active), the Ki [16] was > 10000 nM (inactive) and the Ki [17] was 1260 nM (active). The Ki [18] was 3.16 nM (active), the Ki [19] was 25.1 nM (active) and the Ki [20] was 200 nM (active). The Ki [21] was 12.6 nM (active), the Ki [22] was > 1260 nM (inactive) and the Ki [23] was 126 nM (active).
In the case of `Cc1ccc(NC2=C/C(=N\S(=O)(=O)c3cccs3)c3ccccc3C2=O)c(C)c1`, the IC50 [24] is reported as > 66600 nM (inactive), the AC50 [25] is reported as 404 nM (active) and the EC50 [26] is reported as 2510 nM (active).
`COc1ccc(/C=N/NC(=O)c2nn(-c3ccccc3)c(=O)c3c(N)scc23)cc1` was tested, and the IC50 [27] was 415 nM (active).
